Source: patent publication US20080213815A1, “DIAGNOSING BREAST CANCER BY SEPRASE LEVEL” (DUBLIN CITY UNIVERSITY, priority 2007, published 2008)
Read-outs that look alike come from different tables or passages of the source. Where a SMILES comes first, the peptide text is derived from it. The star is where a group is joined. AFC = O=c1cc(C(F)(F)F)c2ccc(N*)cc2o1

Columns and labels:
[1] = biological target: T1, Prolyl Oligopeptidase (Homo sapiens, UniProt P48147)
T1 sequence (P48147 1-710): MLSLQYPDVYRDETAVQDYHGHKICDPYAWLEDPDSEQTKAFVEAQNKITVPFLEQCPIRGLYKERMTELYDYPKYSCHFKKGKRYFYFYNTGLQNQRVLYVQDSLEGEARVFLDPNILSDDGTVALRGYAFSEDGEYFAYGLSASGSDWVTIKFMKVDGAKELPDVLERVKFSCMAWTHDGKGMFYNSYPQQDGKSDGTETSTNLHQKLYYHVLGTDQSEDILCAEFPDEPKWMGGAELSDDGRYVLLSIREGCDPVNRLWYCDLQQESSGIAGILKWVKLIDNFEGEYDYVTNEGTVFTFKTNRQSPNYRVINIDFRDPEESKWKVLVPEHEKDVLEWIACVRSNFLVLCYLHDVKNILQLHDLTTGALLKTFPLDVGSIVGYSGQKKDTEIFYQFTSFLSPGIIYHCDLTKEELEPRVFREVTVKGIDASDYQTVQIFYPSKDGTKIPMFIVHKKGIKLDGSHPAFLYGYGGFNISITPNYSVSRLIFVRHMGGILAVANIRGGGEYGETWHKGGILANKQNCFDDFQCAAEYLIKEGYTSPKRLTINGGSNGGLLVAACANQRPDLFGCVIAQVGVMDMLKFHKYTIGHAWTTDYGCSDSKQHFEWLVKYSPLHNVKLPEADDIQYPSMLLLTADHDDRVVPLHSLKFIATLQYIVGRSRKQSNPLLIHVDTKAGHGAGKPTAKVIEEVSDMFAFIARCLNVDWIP

[2] = biological target: T2, Seprase (Homo sapiens, UniProt Q12884); assay: Seprase activity towards fluorogenic substrates; assay type: biochemical; conditions: compared with substrate Z-Gly-Pro-AMC
T2 sequence (Q12884 1-760): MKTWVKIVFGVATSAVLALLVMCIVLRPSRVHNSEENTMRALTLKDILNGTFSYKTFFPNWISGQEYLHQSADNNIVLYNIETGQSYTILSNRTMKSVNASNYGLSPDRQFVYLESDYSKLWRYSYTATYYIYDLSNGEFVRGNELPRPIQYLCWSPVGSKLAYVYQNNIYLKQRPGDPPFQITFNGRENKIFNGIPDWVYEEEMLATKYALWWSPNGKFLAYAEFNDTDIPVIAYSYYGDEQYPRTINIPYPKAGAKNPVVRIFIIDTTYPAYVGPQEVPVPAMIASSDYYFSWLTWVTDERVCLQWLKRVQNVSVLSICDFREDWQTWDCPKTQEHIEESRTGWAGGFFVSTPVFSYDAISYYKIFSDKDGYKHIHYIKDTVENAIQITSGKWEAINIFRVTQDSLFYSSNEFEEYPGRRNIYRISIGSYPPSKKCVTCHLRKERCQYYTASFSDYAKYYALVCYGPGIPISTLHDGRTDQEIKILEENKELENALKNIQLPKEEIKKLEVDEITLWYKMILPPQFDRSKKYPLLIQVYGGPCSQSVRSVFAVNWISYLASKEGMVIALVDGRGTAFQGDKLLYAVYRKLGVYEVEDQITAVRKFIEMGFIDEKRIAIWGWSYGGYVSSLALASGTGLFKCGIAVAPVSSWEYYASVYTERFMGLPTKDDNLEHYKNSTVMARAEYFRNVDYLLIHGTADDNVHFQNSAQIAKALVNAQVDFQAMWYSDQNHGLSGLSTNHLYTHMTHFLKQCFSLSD
From the text: The substrate used for the test is Benzyloxycarbonyl (Z)-Gly-Pro-7-amino-4-methylcoumarin (AMC) [Z-Gly-Pro-AMC]. […] This substrate is for a completely different enzyme, namely DPPII.

[3] = biological target: T3, PO (Prolyl Oligopeptidase) (Homo sapiens, UniProt P48147); assay: Fluorimetric Z-Gly-Pro-AMC assay in serum with PO inhibitor; assay type: biochemical; conditions: JTP-4819 at a concentration of 4×10^−6M in the assay; 100 μM Z-Gly-Pro-AMC, 37° C.
T3 construct: from tissue; host or cells: serum
T3 sequence (P48147 1-710): T1 sequence (P48147 1-710)
Method: A 25 μl aliquot of serum was pre-incubated for 15 minutes at 37° C. with 5 μl of 2.5×10^−4M JTP-4819 in 10% v/v MeOH in a 96 well microtitre plate prior to substrate addition. Next, 100 μl of 100μM Z-Gly-Pro-AMC substrate in 4% MeOH was added to the sample and the microtitre plate was incubated at 37° C. for 60 mins. Reactions were terminated by the addition of 170 μl of 1.5M acetic acid. Blanks or negative controls were prepared by adding 170 μl of 1.5M acetic acid to 25 μl of enzyme sample prior to substrate addition and incubation at 37° C. for 60 mins. The assay is performed in triplicate and at three different times. […] This concentration is obtained by adding 5 μl of 2.5×10^−4 M JTP-4819 to the assay.
Fluorimetric analysis of these samples was achieved using a Perkin Elmer LS50 Fluorescence Spectrophotometer at excitation and emission wavelengths of 370 nm and 440 nm respectively. Excitation slit widths were maintained at 10 nm while emission slit widths were adjusted accordingly for the range being analysed.
End point measurements were allowed, as the enzyme assay was linear with respect to time and enzyme concentration up to 60 mins. Fluorimetric intensities observed were converted to nanomoles AMC released per minute per ml using the appropriate standard curve. Enzyme units were defined as nanomoles of AMC released per minute at 37° C.

[4] = Prolyl Oligopeptidase specific inhibitors, Table 5; read-out: Potency Ki; cited from earlier work
[5] = Prolyl Oligopeptidase specific inhibitors, Table 5, Bacterial Inhibitor; cited from earlier work
[6] = Prolyl Oligopeptidase specific inhibitors, Table 5; read-out: Potency IC50; cited from earlier work

Q: With CC(NC(=O)OCC1c2ccccc2-c2ccccc21)C(=O)N1CCCC1C#N (stereo not drawn) [Fmoc-Ala-Pro-CN] as the molecule, how does the Ki [1, 4] read?
A: The Ki was 5 nM.

Q: With C[C@H](N)C(=O)N1CCC[C@H]1C(=O)Nc1ccc2c(C(F)(F)F)cc(=O)oc2c1 [Ala-Pro-7-amino-4-trifluoromethylcoumarin] (H-Ala-Pro-{AFC}) as the molecule, how does the “Seprase activity towards substrate” value [2] read?
A: The value was “markedly less activity”.

Q: For Postatin, which “Potency IC50” value [1, 5] is on record?
A: Its value is “IC50 = 0.03 μg/mL”.

Q: With COc1cccc2c1C(=O)c1ccc3c(c1C2=O)C(=O)C[C@@H](C)[C@H]3O [SNA-8073-B] as the molecule, how does the Ki [1, 4] read?
A: The Ki was 8000 nM.

Q: Which Ki [1, 4] does the source give for O=CC1CCCN1C(=O)C1Cc2ccccc2N1C(=O)OCc1ccccc1 (stereo not drawn) [Z-Indolinyl-Prolinal] here?
A: The Ki was 2.4 nM.

Q: For O=C(C1CCCN1C(=O)OCc1ccccc1)N1CCC(F)C1 (stereo not drawn) [Z-Pro-3-fluoropyrrolidine], which Ki [1, 4] is on record?
A: The Ki was 0.8 nM.

Q: With O=C(CO)[C@@H]1CCCN1C(=O)[C@@H]1CCCN1C(=O)NCc1ccccc1 [JTP-4819] as the molecule, how does the “PO sensitivity to inhibitor” value [3] read?
A: The value was “sensitive”.

Q: What about the IC50 [1, 6] of the same molecule?
A: Its IC50 is 0.83 nM.

Q: And the Ki [1, 4]?
A: The Ki was 0.045 nM.

Q: For O=C[C@@H]1CCCN1C(=O)CCC(=O)NCc1ccc(Cl)cc1 [ONO-1603], which IC50 [1, 6] is on record?
A: The IC50 was 57 nM.

Q: With CN[C@@H]1C[C@H]2O[C@@](C)([C@@H]1OC)n1c3ccccc3c3c4c(c5c6ccccc6n2c5c31)C(=O)NC4 [Staurosporine] as the molecule, how does the Ki ([1]; read-out: Potency Ki; Prolyl Oligopeptidase specific inhibitors, Table 5; cited from earlier work) read?
A: Its Ki is 700 nM.

Q: For Propeptin, which Ki [1, 4] is on record?
A: Its Ki is 700 nM.

Q: Which “Potency IC50” value [1, 5] does the source give for CC(C)CC/C=C/C(=O)NC1CCCNC(=O)C(CC(C)C)NC(=O)C(=O)C(C)NC1=O (stereo not drawn) [Eurystatin A] here?
A: Its value is “IC50 = 0.004 μg/mL”.

Q: Which “Potency IC50” value [1, 5] does the source give for CCC(C)CC/C=C/C(=O)NC1CCCNC(=O)C(CC(C)C)NC(=O)C(=O)C(C)NC1=O (stereo not drawn) [Eurystatin B] here?
A: Its value is “IC50 = 0.002 μg/mL”.

Q: Which Ki [1, 4] does the source give for N#CC1CCCN1C(=O)C1CCCN1C(=O)OCC1c2ccccc2-c2ccccc21 (stereo not drawn) [Fmoc-Pro-Pro-CN] here?
A: Its Ki is 5 nM.
